Laboratory results reported in US12441774B2, “Molecular guide system peptides and uses thereof” (SRI International, priority 2017, dated 2025).
“Also recorded” adds a separate entry of the source. Where a SMILES comes first, the peptide text is derived from it. Primed or numbered codes have the meaning given here. Where no end group is shown, it is not given here. [ ]: non-standard residue; d: D form. PEG11 = NCCOCCOCCOCCOCCOCCOCCOCCOCCOCCOCCOCCC(=O)O; PEG11′ = not defined here

Columns and labels:
EphA2 [1] = target: T1, EphA2 (Homo sapiens, UniProt P29317); experiment: MGS_H1299.2 V4 binding to purified EphA2; conditions: EphA2 study
T1 construct: endogenous in cells
Excerpt: (§1) The cellular receptor for MGS_H1299.2 v4 is EphA2. The following results were obtained during a study on EphA2.

EphA2 [2] = target: T1, EphA2; experiment: EphA2 dependence of MGS_H1299.2 V4 cell binding and internalization; assay type: cell-based
Excerpt: as §1

cellular receptor = experiment: Receptor recycle vs new receptor synthesis in MGS internalization; assay type: cell-based
[3] = test system: non-small cell lung cancer cells; experiment: Cellular location of MGS, non-small cell lung cancer cells; assay type: cell-based; conditions: Intracellular = uptake confirmed, exact compartment not determined
Excerpt: (§2) The FOX-Three Platform has already been validated for targeting of cells and subcellular components. A number of validated MGSs are in various stages of development (Tables 1 and 2) for a variety of cell targeting systems. Methods of conjugating a variety of payloads to the peptide MGSs have been established without disrupting their targeting ability. […] While cell targeting has been established and there are a number of competing antibody-based technologies for targeting the surfaces of target cells, intracellular MGSs were not previously known. […] For example, delivery of a MAb intended to bind to proteins involved in DNA replication in the cell nucleus will be therapeutically ineffective if trapped in the Golgi or other locations in the cell. The FOX-Three screening process was recently refined to include subcellular location targeting as a selection criteria. MGSs have been isolated that accumulate in lysosomes, autophagosomes, and Golgi inside cancer cells, as well as target the plasma membrane (FIG. 3).

viable cells in culture = experiment: Cellular uptake of MGS-conjugated MAb (flow cytometry); assay type: cell-based
Experimental: Peptide MGS with a biotin tag (“handle”) was coupled to an anti-biotin antibody. The antibody was labeled with a fluorescent tag. Panel A. MGS peptide-antibody was incubated with viable cells in culture. Uptake of the antibody into the cells was determined by flow cytometry and normalized to antibody uptake with no MGS peptide. Panel B. Uptake of the antibody was determined by fluorescent microscopy and is indicated by red “dots” in the left panel. The MGS peptide can deliver the antibody to the desired location. Using a MGS peptide that internalizes and directs cargo to the Golgi apparatus in the cell, an antibody was delivered to that subcellular compartment. Panel C. MGS peptide-Antibody was injected I.V. into a tumor bearing mouse. At set times points, near-infrared imaging was used to determine uptake of the antibody in the tumor.
A small peptidic-MGS delivers a large monoclonal antibody into a cell in vitro and in vivo. Small peptides would not be able to carry a MAb that is almost greater than 60-times its molecular weight. Cells were treated with a MAb alone and no cellular uptake occurred. But when that MAb was conjugated to one of the identified MGS peptides, a […] increase in cellular uptake was seen.
Peptidic-MGSs can deliver a MAb and increases cellular uptake by 20-380 (FIG. 4A). Peptidic-MGS can deliver a MAb to a discrete subcellular location as dictated by the MGS. […]

cancer cell = experiment: Delivery of cell impermeable protein-toxin, cancer cell death; assay type: cell-based; conditions: peptide delivering a cell impermeable protein-toxin
Excerpt: (§3) The peptide EHPWFNMWSWATQVQE (SEQ ID NO:38) (H2009.2) has been pushed forward first.

[4] = test system: non-small cell lung cancer cells; experiment: Binding to non-small cell lung cancer cells versus normal control cells; assay type: cell-based
Excerpt: as §3

NSCLC cell lines = experiment: Cellular uptake kinetics of valency versions of HCC15.2; assay type: cell-based; conditions: 4 NSCLC cell lines
Dendritic Cells = experiment: Cellular location of MGS, dendritic cells; assay type: cell-based; conditions: Intracellular = uptake confirmed, exact compartment not determined
Excerpt: as §2

Lymphoma Cells = experiment: Cellular location of MGS, lymphoma cells; assay type: cell-based
Excerpt: as §2

Cardiomyocytes = experiment: Cellular location of MGS, cardiomyocytes; assay type: cell-based; conditions: Intracellular = uptake confirmed, exact compartment not determined
Excerpt: as §2

T1 sequence (P29317 24-976, species assumed): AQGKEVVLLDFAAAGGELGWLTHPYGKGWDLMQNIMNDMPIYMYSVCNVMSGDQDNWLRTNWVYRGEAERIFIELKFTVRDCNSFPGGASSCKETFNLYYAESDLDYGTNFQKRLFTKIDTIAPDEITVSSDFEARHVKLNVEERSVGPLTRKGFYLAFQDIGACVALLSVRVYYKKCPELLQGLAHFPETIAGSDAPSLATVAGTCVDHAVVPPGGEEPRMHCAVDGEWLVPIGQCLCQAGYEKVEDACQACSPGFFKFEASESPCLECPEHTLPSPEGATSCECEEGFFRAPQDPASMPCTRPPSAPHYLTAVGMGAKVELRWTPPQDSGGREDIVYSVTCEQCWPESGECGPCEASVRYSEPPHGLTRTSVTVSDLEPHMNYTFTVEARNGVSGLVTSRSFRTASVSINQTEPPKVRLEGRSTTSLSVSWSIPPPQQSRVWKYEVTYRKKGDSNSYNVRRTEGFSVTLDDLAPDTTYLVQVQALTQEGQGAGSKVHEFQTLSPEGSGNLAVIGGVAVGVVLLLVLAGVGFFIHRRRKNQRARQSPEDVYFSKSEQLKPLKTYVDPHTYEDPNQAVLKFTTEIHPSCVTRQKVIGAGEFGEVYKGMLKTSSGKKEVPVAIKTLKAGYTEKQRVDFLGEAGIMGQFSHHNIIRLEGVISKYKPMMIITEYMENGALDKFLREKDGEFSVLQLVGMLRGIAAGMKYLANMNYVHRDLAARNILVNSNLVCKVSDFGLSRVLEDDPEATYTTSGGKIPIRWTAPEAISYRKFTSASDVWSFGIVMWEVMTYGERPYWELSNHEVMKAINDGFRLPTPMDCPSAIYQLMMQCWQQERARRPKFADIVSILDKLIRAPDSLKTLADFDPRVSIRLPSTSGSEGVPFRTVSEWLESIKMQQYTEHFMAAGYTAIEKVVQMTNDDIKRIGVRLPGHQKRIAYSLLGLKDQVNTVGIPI

Row | Molecule | Cellular Location [3] | other results
1 | CC(=O)N[C@@H](Cc1ccc(O)cc1)C(=O)N[C@@H](C)C(=O)N[C@@H](C)C(=O)N[C@@H](Cc1c[nH]c2ccccc12)C(=O)N1CCC[C@H]1C(=O)N[C@@H](C)C(=O)N[C@@H](CO)C(=O)NCC(=O)N[C@@H](C)C(=O)N[C@@H](Cc1c[nH]c2ccccc12)C(=O)N[C@H](C(=O)NCCOCCOCCOCCOCCOCCOCCOCCOCCOCCOCCOCCC(=O)N[C@@H](CS)C(N)=O)[C@@H](C)O [MGS_H1299.2 V4, CH3CO—YAAWPASGAWT—PEG11—C—NH2] (Ac-YAAWPASGAWT[PEG11]C-NH2) |  | competition with EprhrinA1 for binding (EphA2 [1]): compete for binding; EphA2 internalization and co-localization (EphA2 [2]): induces EphaA2 internalization and co-localizes with the receptor in lysosome; peptide binding to cells (EphA2 [2]; increasing EphA2 in cells): increases MGS_H1299.2 V4 binding; peptide binding to cells (EphA2 [2]; reduction of EphA2 in cells): abrogates MGS_H1299.2 V4 binding; fate of the bound cellular receptor upon internalization (cellular receptor): primarily degraded upon internalization
2 | AHTIDDEWASYHMQQWNSPP [MGS_H2009.4] | MGS_H2009.4_Golgi/ER | 
3 | ATEPRKQYATPRVFWTDAPG [MGS_HCC15.1] | MGS_HCC15.1_Intracellular | 
4 | CH3CO—FHAVPQSFYT—PEG11—C—NH2 (Ac-FHAVPQSFYT[PEG11′]C-NH2) [HCC15.2 v8] |  | fate of the bound cellular receptor upon internalization (cellular receptor): primarily degraded upon internalization
5 | CH3CO—LQWRRNFGVWARYRL—PEG11—C—NH2 (Ac-LQWRRNFGVWARYRL[PEG11′]C-NH2) [HCC15.1 v4] |  | fate of the bound cellular receptor upon internalization (cellular receptor): primarily degraded upon internalization
6 | CH3CO—RGDLATLRQL—PEG11—YC—NH2 (Ac-RGDLATLRQL[PEG11′]YC-NH2) [MGS_H2009.1 v4] |  | fate of the bound cellular receptor upon internalization (cellular receptor): rapidly recycled back to the cell surface
7 | EAMNSAEQSAAVVQWEKRRI [MGS_H460.1] | MGS_H460.1_PlasmaMembrane | 
8 | EHPWFNMWSWATQVQE [MGS_H2009.2] | MGS_H2009.2_Lysosome | intracellular delivery of MAb (viable cells in culture): delivers a MAb intracellularly; potency to induce cell death (cancer cell): 80 nM; cell binding specificity [4]: binds to 3 different non-small cell lung cancer cells with minimal binding to normal control cells
9 | FAAKRAEWWDPGQLWDAVWN [MGS_H1993.2] | MGS_H1993.2_Intracellular | 
10 | FEEFYSRQSNTIPYPQQYKG [MGS_H2009.5] | MGS_H2009.5_ER/Lysosome | 
11 | FHAVPQSFYTAP [MGS_HCC15.2] | MGS_HCC15.2_Intracellular | change of peptide affinity with valency (NSCLC cell lines; dimer): significant enhancement of peptide affinity with dimerization; change of peptide affinity with valency (NSCLC cell lines; tetramer): modest improvement upon tetramerization
12 | GPEDTSRAPENQQKTFHRRW [MGS_XS52.1] |  | Cellular Location (Dendritic Cells): MGS_XS52.1_Intacellular
13 | KSREHVNNSACPSKRITAAL [MGS_A20.2] |  | Cellular Location (Lymphoma Cells): MGS_A20.2_Plasma Membrane
14 | LQWRRDDNVHNFGVWARYRL (Ac-LQWRRDDNVHNFGVWARYRL) [MGS_1299.3] | MGS_1299.3_Lysosome/; also recorded: Autophagosomes | 
15 | MDGATWWTQLDPLLVWEGET [MGS_H1993.5] | MGS_H1993.5_Intracellular | 
16 | MTVCNASQRQAHAQATAVSL [MGS_A549.1] | MGS_A549.1_Intracellular | 
17 | QEALEEWFWKMMPWSGPSGQ [MGS_H1993.3] | MGS_H1993.3_Intracellular | 
18 | RGDLATLRQLAQEDGVVGVR [MGS_H2009.1] | MGS_H2009.1_Golgi | 
19 | SADWFQGPAEWLLEGWMGPL [MGS_H1993.6] | MGS_H1993.6_Intracellular | 
20 | SAKTAVSQRVWLPSHRGGEP [MGS_A20.1] |  | Cellular Location (Lymphoma Cells): MGS_A20.1_PlasmaMembrane
21 | SVEYWGERMYYDVMESLGFS [MGS_H1993.1] | MGS_H1993.1_Lysosome | 
22 | TWTDFGQWPWPFGAEGTRAF [MGS_H1993.4] | MGS_H1993.4_Pre-mitotic cells only | 
23 | VSQTMRQTAVPLLWFWTGSL [MGS_H1299.1] | MGS_H1299.1_Intracellular | 
24 | WLSEAGPVVTVRALRGTGSW [MGS_PCM.1] |  | Cellular Location (Lymphoma Cells): MGS_PCM.1_Plasma Membrane; Cellular Location (Cardiomyocytes): MGS_PCM.1_Intracellular
25 | YAAWPASGAWTGTAPCSAGT [MGS_H1299.2] | MGS_H1299.2_Intracellular | 
26 | YPGSPTQYPSSMHEYHSSSE [MGS_H2009.3] | MGS_H2009.3_Lysosome | 
